The record followed here is article PMC10400924 (The Journal of Biological Chemistry, 2023).

Broadly, the Kd is the constant that tells how readily two partners part at equilibrium. Low values mean higher affinity, high ones lower affinity.

Like-named read-outs stand apart in the source and are kept apart here.

For assay [1], the target named is T1, IFNγR1 (Homo sapiens, UniProt P15260). Briefly: biochemical.
Target sequence in this assay (P15260 18-489 limits assumed): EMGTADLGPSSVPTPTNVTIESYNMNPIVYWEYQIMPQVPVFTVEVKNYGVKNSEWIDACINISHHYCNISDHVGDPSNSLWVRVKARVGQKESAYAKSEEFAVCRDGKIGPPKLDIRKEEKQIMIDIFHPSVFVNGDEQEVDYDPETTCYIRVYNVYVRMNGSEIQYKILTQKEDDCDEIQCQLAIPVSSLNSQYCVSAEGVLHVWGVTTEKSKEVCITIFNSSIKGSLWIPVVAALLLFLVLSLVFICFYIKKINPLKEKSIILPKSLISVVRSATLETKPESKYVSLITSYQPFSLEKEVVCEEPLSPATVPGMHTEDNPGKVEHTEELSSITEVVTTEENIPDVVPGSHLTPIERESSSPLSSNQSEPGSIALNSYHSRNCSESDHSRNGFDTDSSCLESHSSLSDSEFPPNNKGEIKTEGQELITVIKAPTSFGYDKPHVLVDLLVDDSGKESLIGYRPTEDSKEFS
Assay [2] has as its target T1, IFNγR1. The settings on record: 10 μM CF, 3 h, intact NK92 cells.
Target sequence in this assay (P15260 18-489): as the sequence (P15260 18-489 limits assumed) above
The target of assay [3] is interferon γ receptor 1 protein (immobilised for SPR) (UniProt P15260). Briefly: SPR.
Assay [4] has the same target. Briefly: SPR. The source holds these as a separate data set. On the technique in general: SPR reads the build-up and loss of mass on a sensor chip optically.

interferon γ, sequence (P01579 24-161): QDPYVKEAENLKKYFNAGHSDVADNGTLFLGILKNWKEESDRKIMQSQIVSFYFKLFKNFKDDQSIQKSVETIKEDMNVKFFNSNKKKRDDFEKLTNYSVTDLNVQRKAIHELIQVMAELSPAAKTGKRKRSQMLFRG
interferon γ receptor 1 protein (immobilised for SPR), sequence (P15260 18-489): as the sequence (P15260 18-489 limits assumed) above

For `COc1cc(/C=C/C(=O)O[C@H]2CC[C@]34C[C@]35CC[C@]3(C)[C@@H]([C@H](C)CCC=C(C)C)CC[C@@]3(C)[C@@H]5CC[C@H]4C2(C)C)ccc1O` [CF, Cycloartenyl ferulate], the Kd at IFNγR1 [1] is 500 nM. Moreover, on IFNγR1 [2], the “thermal stability (CETSA)” value is recorded as “When treated with CF, the thermal stability of IFNγR1 was significantly increased”.

As to “interferon γ (from UniProt P01579 24-161) (ligand)”, the Kd turned out to be 4.5 nM in assay [3] and 2.8 nM in assay [4].
